Experimental data from patent US7868204B2, “Inhibitors of histone deacetylase” (MethylGene Inc., priority 2001, dated 2011).
Like-named read-outs stand apart in the source and are kept apart here.

Tests used:
[1] = target: T1, cloned recombinant human HDAC-1 (Homo sapiens, UniProt Q13547); experiment: Human HDAC-1 enzyme inhibition, Assay 1 ([3H]-acetylated histone substrate, scintillation counting); assay type: biochemical
T1 construct: made in house; host or cells: Baculovirus insect cell expression system
T1 sequence (Q13547 whole entry): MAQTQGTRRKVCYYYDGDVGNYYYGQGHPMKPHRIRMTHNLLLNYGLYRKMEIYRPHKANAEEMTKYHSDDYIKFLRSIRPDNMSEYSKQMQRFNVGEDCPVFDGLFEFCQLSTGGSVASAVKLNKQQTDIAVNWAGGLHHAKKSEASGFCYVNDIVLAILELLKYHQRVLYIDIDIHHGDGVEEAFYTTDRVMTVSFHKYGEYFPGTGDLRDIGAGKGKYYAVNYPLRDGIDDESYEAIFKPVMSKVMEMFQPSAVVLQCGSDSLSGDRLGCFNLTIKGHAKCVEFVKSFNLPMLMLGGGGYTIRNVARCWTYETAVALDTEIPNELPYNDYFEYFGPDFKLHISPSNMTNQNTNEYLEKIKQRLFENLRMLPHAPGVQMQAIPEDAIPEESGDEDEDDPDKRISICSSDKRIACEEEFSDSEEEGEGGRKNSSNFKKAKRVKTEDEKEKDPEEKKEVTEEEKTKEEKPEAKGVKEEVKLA
Description: Assay 1. HDAC inhibitors were screened against a cloned recombinant human HDAC-1 enzyme expressed and purified from a Baculovirus insect cell expression system. […] The mixture was extracted with ethyl acetate and the released [^3H]-acetic acid was quantified by scintillation counting. For inhibition studies, the enzyme was preincubated with compounds at 4° C. for 30 minutes prior to initiation of the enzymatic assay. IC50 values for HDAC enzyme inhibitors were determined by performing dose response curves with individual compounds and determining the concentration of inhibitor producing fifty percent of the maximal inhibition.

HCT116 cells = experiment: MTT assay; assay type: cell-based; conditions: Homo sapiens, HCT116 cells, 72 hours
Description: HCT116 cells (2000/well) were plated into 96-well tissue culture plates one day before compound treatment. Compounds at various concentrations were added to the cells. The cells were incubated for 72 hours at 37° C. in 5% CO2 incubator. MTT (3-[4,5-dimethylthiazol-2-yl]-2,5 diphenyl tetrazolium bromide, Sigma) was added at a final concentration of 0.5 mg/ml and incubated with the cells for 4 hours before one volume of solubilization buffer (50% N,N-dimethylformamide, 20% SDS, pH 4.7) was added onto the cultured cells. […] OD values were converted to cell numbers according to a standard growth curve of the relevant cell line.

[2] = Table 5c, read-out: Human HDAC-1 IC50
[3] = Table 5b, read-out: Human HDAC-1 IC50
[4] = Table 5F, read-out: Human HDAC-1 IC50
[5] = Table 5d, read-out: HDAC-1 IC50

IC50 [1, 4]	IC50 (HCT116 cells; HCT-116, 72 h, Table 5F)	IC50 [1, 5]	IC50 (HCT116 cells; HCT-116, Table 5d)	SMILES	also measured
				Nc1ccccc1NC(=O)/C=C/c1ccc(CCNC(=O)OCc2cccnc2)cc1 [Cpd 105]	IC50 [1, 2]: 16 µM; IC50 (HCT116 cells; HCT-116, 72 h, Table 5c): 14 µM
				Nc1ccccc1NC(=O)c1ccc(CNc2nc(NCCc3cccnc3)nc(NC3CC3)n2)cc1 [Cpd 481]	IC50 [1, 3]: 6 µM; IC50 (HCT116 cells; HCT-116, 72 h, Table 5b): 0.7 µM
3 µM	2 µM			Nc1ccccc1NC(=O)c1ccc(CNc2ccc(SC(F)(F)F)cc2)cc1 [Cpd 450, N-(2-Amino-phenyl)-4-[(4-trifluoromethylsulfanyl-phenylamino)-methyl]-benzamide]	
4 µM	11 µM			COc1cc(NCc2ccc(C(=O)Nc3ccccc3N)cc2)cc(OC)c1OC [Cpd 571]	
				Nc1ccccc1NC(=O)c1ccc(CNc2nc(NCCc3ccccn3)nc(NC3CC3)n2)cc1 [Cpd 480]	IC50 [1, 3]: 0.8 µM; IC50 (HCT116 cells; HCT-116, 72 h, Table 5b): 0.5 µM
				Nc1ccccc1NC(=O)/C=C/c1ccc(NCc2cccnc2)cc1 [Cpd 111, N-(2-amino-phenyl)-3-{4-[(pyridin-3-ylmethyl)-amino]-phenyl}-acrylamide]	IC50 [1, 2]: 10 µM; IC50 (HCT116 cells; HCT-116, 72 h, Table 5c): 2 µM
4 µM	2 µM			Nc1ccccc1NC(=O)c1ccc(CNc2ccc(OCc3cccnc3)cc2)cc1 [Cpd 408, N-(2-Amino-phenyl)-4-{[4-(pyridin-3-ylmethoxy)-phenylamino]-methyl}-benzamide]	
17 µM	5 µM			COc1cc(C2C=CC(c3ccc(C(=O)Nc4ccccc4N)cc3)O2)cc(OC)c1OC (centres unmarked) [compound 289, N-(2-Amino-phenyl)-4-[5-(3,4,5-trimethoxy-phenyl)-2,5-dihydro-furan-2-yl]-benzamide]	
4 µM	8 µM			Nc1ccccc1NC(=O)c1ccc(Sc2ccc3ccccc3n2)nc1 [compound 319, N-(2-Amino-phenyl)-6-(quinolin-2-ylsulfanyl)-nicotinamide]	
				Nc1ccccc1NC(=O)/C=C/c1ccc(NC/C=C/c2ccccc2)cc1 [Cpd 71]	IC50 [1, 2]: 10 µM; IC50 (HCT116 cells; HCT-116, 72 h, Table 5c): 44 µM
		5 µM	17 µM	Nc1ccccc1NC(=O)/C=C/c1ccc(CNc2nccc(C(F)(F)F)n2)cc1 [Cpd 529]	
		17 µM	30 µM	Nc1ccccc1NC(=O)/C=C/c1ccc(NCCNc2nccs2)nc1 [Cpd 522, N-(2-Amino-phenyl)-3-{6-[2-(thiazol-2-ylamino)-ethylamino]-pyridin-3-yl}-acrylamide]	
11 µM	3 µM			COc1cc(C2CCC(c3ccc(C(=O)Nc4ccccc4N)cc3)O2)cc(OC)c1OC (centres unmarked) [compound 290, N-(2-Amino-phenyl)-4-[5-(3,4,5-trimethoxy-phenyl)-tetrahydro-furan-2-yl]-benzamide]	
		15 µM	15 µM	Nc1ccccc1NC(=O)/C=C/c1ccc(Br)cc1 [Cpd 516, N-(2-Amino-phenyl)-3-(4-bromo-phenyl)-acrylamide]	
				Nc1ccc(CNc2ncc(/C=C/C(=O)Nc3ccccc3N)cn2)cc1 [Cpd 115, 3-[2-(4-amino-benzylamino)-pyrimidin-5-yl]-N-(2-amino-phenyl)-acrylamide]	IC50 [1, 2]: 15 µM; IC50 (HCT116 cells; HCT-116, 72 h, Table 5c): 9 µM
		5 µM	> 25 µM	Nc1ccccc1NC(=O)/C=C/c1ccc(CNc2ccc(N3CCOCC3)cc2)cc1 [Cpd 503, N-(2-Amino-phenyl)-3-{4-[(4-morpholin-4-yl-phenylamino)-methyl]-phenyl}-acrylamide]	
		3 µM	5 µM	Nc1ccccc1NC(=O)/C=C/c1ccc(CNc2ccc([N+](=O)[O-])c(C(F)(F)F)c2)cc1 [Cpd 534, N-(2-Amino-phenyl)-3-{4[(4-nitro-3-trifluoromethyl-phenylamino)-methyl]-phenyl}-acrylamide]	

IC50 [1, 4]	IC50 (HCT116 cells; HCT-116, 72 h, Table 5F)	IC50 [1, 5]	IC50 (HCT116 cells; HCT-116, Table 5d)	SMILES	also measured
4 µM	10 µM			Nc1nc(NCc2ccc(C(=O)Nc3ccccc3N)cc2)c2nc[nH]c2n1 [Cpd 331, N-(2-Amino-phenyl)-4-[(2-amino-9H-purin-6-ylamino)-methyl]-benzamide]	
		10 µM	10 µM	COc1cc(CCc2ccc(/C=C/C(=O)Nc3ccccc3N)cc2)cc(OC)c1OC [Cpd 540, N-(2-Amino-phenyl)-3-{4-[2-(3,4,5-trimethoxy-phenyl)-ethyl]-phenyl}-acrylamide]	
		2 µM	12 µM	Nc1ccccc1NC(=O)/C=C/c1ccc(CNc2ccc(Br)cc2)cc1 [Cpd 545, N-(2-Amino-phenyl)-3-{4[(4-bromo-phenylamino)-methyl]-phenyl}-acrylamide]	
				COc1ccc(CNc2cccc(/C=C/C(=O)Nc3ccccc3N)n2)cc1 [Cpd 51, N-(2-aminophenyl)-3-[6-(4-methoxy-benzylamino)-pyridin-2-yl]-acrylamide]	IC50 [1, 2]: 22 µM; IC50 (HCT116 cells; HCT-116, 72 h, Table 5c): 4 µM
25 µM	10 µM			Nc1ccccc1NC(=O)c1ccc(-c2noc(CN3CCOCC3)n2)cc1 [Cpd 355, N-(2-Amino-phenyl)-4-(5-morpholin-4-ylmethyl-[1,2,4]oxadiazol-3-yl)-benzamide]	
		3 µM	6 µM	Nc1ccccc1NC(=O)/C=C/c1ccc(CNc2ccc3c(c2)OCO3)cc1 [Cpd 505, N-(2-Amino-phenyl)-3-[4-(benzo[1,3]dioxol-5-ylaminomethyl)-phenyl]-acrylamide]	
		22 µM	10 µM	COc1cc(Nc2ccc(/C=C/C(=O)Nc3ccccc3N)cc2)cc(OC)c1OC [Cpd 481]	
				Nc1ccccc1NC(=O)c1ccc(CNc2nc(NCCc3ccc(Cl)cc3)nc(NC3CC3)n2)cc1 [Cpd 475]	IC50 [1, 3]: 0.6 µM; IC50 (HCT116 cells; HCT-116, 72 h, Table 5b): 2 µM
		15 µM	12 µM	Nc1ccccc1NC(=O)/C=C/c1ccc(CNc2ccc(F)cc2)cc1 [Cpd 554, N-(2-Amino-phenyl)-3-{4-[(4-fluoro-phenylamino)-methyl]-phenyl}-acrylamide]	
1.8 µM	10 µM			N#C/N=C(\NCc1ccc(C(=O)Nc2ccccc2N)cc1)Nc1ccncc1 [Cpd 240]	
6 µM	8 µM			Nc1ccccc1NC(=O)c1ccc(C(=O)Nc2ccccc2N)nc1 [Cpd 380, Pyridine-2,5-dicarboxylic acid bis-[(2-amino-phenyl)-amide]]	
9 µM	4 µM			CCN1C(=O)C(Cc2ccc(C(=O)Nc3ccccc3N)cc2)Oc2ccccc21 (centres unmarked) [compound 269, N-(2-Amino-phenyl)-4-(4-ethyl-3-oxo-3,4-dihydro-2H-benzo[1,4]oxazin-2-ylmethyl)-benzamide]	
				CCCCNc1nc(NCCc2ccccc2)nc(NCc2ccc(C(=O)Nc3ccccc3N)cc2)n1 [Cpd 473]	IC50 [1, 3]: 4 µM; IC50 (HCT116 cells; HCT-116, 72 h, Table 5b): 3 µM
		18 µM	9 µM	COc1cc(/C=C/c2ccc(/C=C/C(=O)Nc3ccccc3N)cc2)cc(OC)c1OC [Cpd 536, N-(2-Amino-phenyl)-3-{4-[2-(3,4,5-trimethoxy-phenyl)-vinyl]-phenyl}-acrylamide]	
		4 µM	10 µM	CC(=O)c1cc2c(cc1NCc1ccc(/C=C/C(=O)Nc3ccccc3N)cc1)OCO2 [Cpd 501, 3-{4-[(6-Acetyl-benzo[1,3]dioxol-5-ylamino)-methyl]-phenyl}-N-(2-amino-phenyl)-acrylamide]	
				Nc1nc(N)nc(/C=C/c2ccc(C(=O)Nc3ccccc3N)cc2)n1 [Cpd 220]	IC50 [1, 3]: 7 µM; IC50 (HCT116 cells; HCT-116, 72 h, Table 5b): 6 µM
5 µM	6 µM			COc1ccc(CNc2ccc(C3CC3C(=O)Nc3ccccc3N)cn2)cc1 (centres unmarked) [Cpd 576]	
